According to ChEMBL document CHEMBL1146905, “Synthesis and evaluation of phenoxy acetic acid derivatives as [corrected] anti-mycobacterial agents” (2006):
Values after ≈ are worked out from the molar mass of the structure shown.

Legend:
Format in all cases: functional
[1] = test system: Mycobacterium tuberculosis; assay: Antimycobacterial activity against Mycobacterium tuberculosis H37Rv by BACTEC-460 radiometric assay
[2] = test system: Mycobacterium tuberculosis; assay: Antimycobacterial activity against Mycobacterium tuberculosis H37Rv by BACTEC-460 radiometric assay above 6.25 ug/ml
[3] = test system: Mycobacterium tuberculosis; assay: Antimycobacterial activity against Mycobacterium tuberculosis H37Rv by BACTEC-460 radiometric assay at 6.25 ug/ml

Compound	MIC [1]	Inhibition [2]	inhibition at 6.25 µg/mL [3]
COc1cc(C2=NN(C(=O)c3ccc([N+](=O)[O-])cc3)C3CCCC23)c(C)cc1OCC(=O)O (stereo not drawn)	> 6.25 µg/mL	26%	–
COc1cc(C2=NN(C(=O)c3ccc([N+](=O)[O-])cc3)C(c3ccc(O)cc3)C2)c(C)cc1OCC(=O)O (stereo not drawn)	6.25 µg/mL (≈ 12.4 µM)	74%	–
COc1cc(C2=NN(C(=O)c3ccccc3)C3CCCC23)c(C)cc1OCC(=O)O (stereo not drawn)	> 6.25 µg/mL	24%	–
COc1cc(C2=NN(C(=O)COc3ccc4ccccc4c3)C(Cc3ccccc3)C2)c(C)cc1OCC(=O)O (stereo not drawn)	0.22 µg/mL (≈ 0.408 µM)	–	95%
COc1cc(C2=NN(C(=O)c3ccc([N+](=O)[O-])cc3)C(Cc3ccccc3)C2)c(C)cc1OCC(=O)O (stereo not drawn)	> 6.25 µg/mL	64%	–
COc1cc(C2=NN(C(=O)Cc3ccccc3)C3CCCC23)c(C)cc1OCC(=O)O (stereo not drawn)	> 6.25 µg/mL	21%	–
COc1cc(C2=NN(C(=O)COc3cccc4ccccc34)C3CCCC23)c(C)cc1OCC(=O)O (stereo not drawn)	> 6.25 µg/mL	54%	–
COc1cc(C2=NN(C(=O)COc3cccc4ccccc34)C(c3ccc(O)cc3)C2)c(C)cc1OCC(=O)O (stereo not drawn)	> 6.25 µg/mL	61%	–
COc1cc(C2=NN(C(=O)COc3ccccc3)C(c3ccc(O)cc3)C2)c(C)cc1OCC(=O)O (stereo not drawn)	0.1 µg/mL (≈ 0.204 µM)	–	99%
COc1cc(C2=NN(C(=O)COc3ccccc3)C(Cc3ccccc3)C2)c(C)cc1OCC(=O)O (stereo not drawn)	> 6.25 µg/mL	–	94%
COc1cc(C2=NN(C(=O)Cc3ccccc3)C(Cc3ccccc3)C2)c(C)cc1OCC(=O)O (stereo not drawn)	> 6.25 µg/mL	34%	–
COc1cc(C2=NN(C(=O)COc3ccc4ccccc4c3)C3CCCC23)c(C)cc1OCC(=O)O (stereo not drawn)	6.12 µg/mL (≈ 12.5 µM)	91%	–
COc1cc(C2=NN(C(=O)COc3ccc4ccccc4c3)C(c3ccc(O)cc3)C2)c(C)cc1OCC(=O)O (stereo not drawn)	0.1 µg/mL (≈ 0.185 µM)	–	99%
COc1cc(C2=NN(C(=O)c3ccccc3)C(c3ccc(O)cc3)C2)c(C)cc1OCC(=O)O (stereo not drawn)	> 6.25 µg/mL	72%	–
COc1cc(C2=NN(C(=O)COc3cccc4ccccc34)C(Cc3ccccc3)C2)c(C)cc1OCC(=O)O (stereo not drawn)	> 6.25 µg/mL	18%	–
COc1cc(C2=NN(C(=O)Cc3ccccc3)C(c3ccc(O)cc3)C2)c(C)cc1OCC(=O)O (stereo not drawn)	> 6.25 µg/mL	28%	–
COc1cc(C2=NN(C(=O)c3ccccc3)C(Cc3ccccc3)C2)c(C)cc1OCC(=O)O (stereo not drawn)	> 6.25 µg/mL	12%	–
COc1cc(C2=NN(C(=O)COc3ccccc3)C3CCCC23)c(C)cc1OCC(=O)O (stereo not drawn)	> 6.25 µg/mL	87%	–
NNC(=O)c1ccncc1 [ISONIAZID]	0.1 µg/mL (≈ 0.729 µM)	–	96%
